Measurements as given in a melting point compilation (Tetko et al.).

Conditions: a range is the spread between reports

Structure (SMILES)	melting point [°C]
Nc1cccc([N+](=O)[O-])c1	112 to 114
CC(C)(C)c1cccc(O)c1	41 to 45
CCCCCSCCCCC	-51.3 to -51
COC1=CC(=O)C=C(OC)C1=O	253 to 256
CC12C=CC(=O)C=C1CCC1C2C(=O)CC2(C)C1CCC2(O)C(=O)CO (stereo not drawn)	234 to 237
CC(C)(C)c1ccc(Br)cc1	16 to 19
C=C=C(C)C	-114
COC(=O)c1c[nH]c2ccccc12	150 to 151
O=[N+]([O-])c1cc(Cl)c(Cl)c(Cl)c1	70 to 72.5
O=C(c1ccccc1)c1cccc(Cl)c1	82 to 83
C=CCn1c(=O)n(CC=C)c(=O)n(CC=C)c1=O	20.5 to 24
Oc1cc(Cl)ccc1Cl	57 to 59
COC(=O)c1cccc(Br)c1	32 to 33
CCCOC(C)=O	-95 to -92
Nc1ccccc1C(=O)O	144 to 147
OCc1ccc(Cl)cc1Cl	59 to 59.5
COc1ccc(C=O)cc1OC	43 to 44
CC(=O)Oc1ccccc1OC(C)=O	64 to 64.5
O=C1CCCCCN1	69 to 70
c1ccc2cc(-c3ccc4ccccc4c3)ccc2c1	187 to 188
Nc1ccc(Cl)cc1C(=O)c1ccccc1	96 to 99

Structure (SMILES)	melting point [°C]
CCCCC(=O)OCC	-91.2 to -91
OCC(O)CO	17.8 to 18.2
O=C(Cl)c1ccco1	-2 to -1
O=C1CSC(=O)N1	125 to 128
O=C1C=CC(=O)N1c1ccccc1	89 to 90.5
Nc1c(Cl)c(Cl)c(Cl)c(Cl)c1Cl	232 to 235
O=C1OCc2c(Cl)c(Cl)c(Cl)c(Cl)c21	208 to 210
CCCCBr	-112
CC(C)CCCC(C)C1CCC2C3CC=C4CC(O)CCC4(C)C3CCC12C (stereo not drawn)	148 to 149
CCOC(=O)n1ccn(C)c1=S	124
CC(C)C(O)C(C)(C)C (stereo not drawn)	-13 to -11
Nc1ccc(Oc2ccccc2)cc1	83 to 84
Brc1ccc(Br)c2ccccc12	81 to 83
COc1ccccc1OCC(O)CO (stereo not drawn)	78.5 to 81
CC1(C)OC(=O)NC1=O	76.5 to 79
O=C(O)c1cccc(F)c1	123 to 124
O=Cc1cccc(C=O)c1	87.8 to 89.5
CC(C)(C)c1ccc(O)c(N)c1	161 to 163
OCCc1ccccn1	-8 to -7.8
Oc1c(Br)cccc1Br	55 to 56.5
O=C(O)COc1ccc(Cl)cc1Cl	138 to 140

Structure (SMILES)	melting point [°C]
O=C1CCOc2ccccc21	36.5 to 38
CCCC=O	-99 to -96
ICCCCI	5.8 to 6
CCOC(=O)C(=Cc1ccccc1)C(=O)OCC	30 to 32
c1ccc(-c2ccc(-c3ccc(-c4ccccc4)cc3)cc2)cc1	317 to 320
CCOC(=O)c1ccccn1	1 to 2
O=C(O)C(S)C(S)C(=O)O (stereo not drawn)	193 to 197
O=C(O)c1ccccc1Nc1ccccc1	184 to 187
Brc1cc(Br)c(Br)s1	27 to 29
CCn1cc(C(=O)O)c(=O)c2ccc(C)nc21	229 to 230
O=Cc1ccc(Cl)cc1Cl	71 to 73
Oc1cccc(Cl)c1	32 to 34
Cc1cc(Cl)ccc1OC(C)C(=O)O (stereo not drawn)	94 to 95
c1cc2c3c(cccc3c1)CC2	93.4 to 95
O=c1[nH]c2ccccc2n1CCCN1CCC(n2c(=O)[nH]c3cc(Cl)ccc32)CC1	238 to 242
O=Cc1ccc(O)c([N+](=O)[O-])c1	141 to 142
O=C(O)c1c(F)cc(F)cc1F	141 to 143
O=C(C=CC=Cc1ccc2c(c1)OCO2)N1CCCCC1	131 to 132
O=C(O)CCCC(=O)c1ccccc1	127
Cc1cc(Cl)c(C)cc1Cl	68 to 71
CCCCCCC	-91 to -90.6

Structure (SMILES)	melting point [°C]
C=C(C)C#N	-36 to -35.8
CC1(O)CCCC1	36 to 37
COc1ccc([N+](=O)[O-])cc1N	117 to 118
C#CC(C)C	-90 to -89.7
Cc1cc(Cl)nc(Cl)n1	46 to 46.5
Cc1ccc(O)c([N+](=O)[O-])c1	34 to 36.5
COc1ccc(C(N)=O)cc1	165 to 166
CC(=O)Oc1ccc(-c2ccc(OC(C)=O)cc2)cc1	161 to 164
CCOC(=O)c1ccccc1[N+](=O)[O-]	28 to 30
Oc1cccc2ccccc12	95 to 96
c1ccc2c(c1)ccc1cccnc12	50 to 52
O=C1CCCCN1	37 to 39.5
O=Cc1ccc(O)c(O)c1	153 to 155
CCCCCC(=O)OC(=O)CCCCC	-41 to -40
CC(=O)c1ccc(Cl)cc1Cl	33 to 34
ClCCCBr	-59 to -58.9
O=C(O)C(Br)(Br)Br	132
CCOC(=O)C#CC(=O)OCC	1.5 to 2
O=C(c1ccccc1)c1ccc(Br)cc1	81 to 82.5
COc1cc(CO)ccc1O	114 to 115
